Data reported in patent US6664065B2, “Measuring viral reverse transcriptase activity” (priority 2000, dated 2003).

Legend:
taq polymerase = target: T1, taq polymerase (Thermus aquaticus, UniProt P19821); assay: AZT included in the PCR reaction mixture in place of dT (TaqMan PCR step); assay type: biochemical
T1 construct: purchased Perkin Elmer PE 4304437
Source text: Next, an aliquot of the cDNA formed in the RT step above is brought into the Taqman® instrument (PE Model 7700) and put into a reaction mixture which contains Taqman® Universal master mix (taq polymerase in buffer), beta actin-specific forward primer, beta actin-specific reverse primer, and beta actin Taqman® probe. The PCR step takes place in the instrument under standard Taqman® PCR conditions. Although, as described above, the present method is depicted as a two test tube reaction, one skilled in the art will realize that these steps can be combined in a single reaction vessel.
The transcriptase reaction was initiated by placing the reaction mixture in a MWG Thermocycler, or equivalent, under thermocycling conditions at 25° C. for 10 minutes, then at 37° C. for 60 minutes, and finally at 95° C. for 5 minutes. This final thermocycling step deactivated the rHIV RT. Next 5 μL of the post-thermocycle RT reaction mixture, which presumably contained cDNA, were added to 45 μL of the Master Mix solution. The Master Mix Solution contained 25 μL 2×Taqman Universal Master Mix, 5 μL beta Actin Forward Primer, 5 μL Beta Actin Reverse Primer and […]. Thus, the total PCR reaction mixture contained 50 μL. […]

rHIV RT = target: T2, rHIV RT (Human immunodeficiency virus type 1 group M subtype B, UniProt P03366); assay: TaqMan real-time RT-PCR assay of rHIV RT inhibition by a test agent; assay type: biochemical, HIV
T2 construct: rHIV RT—Worthington Biochemical catalogue No. 5006 (500 U at 12.5 U/μL); purchased Worthington Biochemical 5006
Experimental: In this regard, oligo dT is used as a template for rHIV RT. Oligo dT is complementary to the polyadenylated RNA-component of the total human heart RNA which present in the reaction mixture. rHIV RT forms cDNA from the oligo dT/RNA complex in the presence of dNTP nucleotides.
Thus, the temperature cycling conditions for rHIV RT were about 25° C. for 10 minutes, followed by about 37° C. for 60 minutes, and finally 95° C. for 5 minutes. At 95° C., the activity of rHIV RT was destroyed.
In this context, the test agent preferably is added when the template RNA, the primer which is complementary to the template RNA, and the dNTPs are mixed in the presence of the sample. Accordingly, although the sample may contain active RT, cDNA transcription by the RT can be inhibited by the presence of the test agent in the reaction mixture.
The inhibiting properties of the test agent are reflected in an increase in CT value for the sample which contains the test agent.
An rHIV RT solution (Master Mix solution)was prepared which contained 5 μL 10× RT reaction buffer, 11 μL 25 mM MgCl2, 10 μL 10 mM dNTP working stock solution, 2.5 μL 50 μM oligo dT, 1 μL RNAse inhibitor and 1.25 μL rHIV RT. The total volume of the Master Mix solution was 30.75 μL.
were added to 30.75 μL of the Master Mix solution. Thus, the reaction mixture contained 50 μL total solution volume.
The controls for the present example included a positive control containing 18.25 μL water plus 1 μL RNA, and a negative control containing 19.25 μL water. […]

[1] = AZT 1.25 mM down to 250 μM in RT reaction mixture with a fixed concentration of dT, all concentrations

T1 sequence (P19821 whole entry): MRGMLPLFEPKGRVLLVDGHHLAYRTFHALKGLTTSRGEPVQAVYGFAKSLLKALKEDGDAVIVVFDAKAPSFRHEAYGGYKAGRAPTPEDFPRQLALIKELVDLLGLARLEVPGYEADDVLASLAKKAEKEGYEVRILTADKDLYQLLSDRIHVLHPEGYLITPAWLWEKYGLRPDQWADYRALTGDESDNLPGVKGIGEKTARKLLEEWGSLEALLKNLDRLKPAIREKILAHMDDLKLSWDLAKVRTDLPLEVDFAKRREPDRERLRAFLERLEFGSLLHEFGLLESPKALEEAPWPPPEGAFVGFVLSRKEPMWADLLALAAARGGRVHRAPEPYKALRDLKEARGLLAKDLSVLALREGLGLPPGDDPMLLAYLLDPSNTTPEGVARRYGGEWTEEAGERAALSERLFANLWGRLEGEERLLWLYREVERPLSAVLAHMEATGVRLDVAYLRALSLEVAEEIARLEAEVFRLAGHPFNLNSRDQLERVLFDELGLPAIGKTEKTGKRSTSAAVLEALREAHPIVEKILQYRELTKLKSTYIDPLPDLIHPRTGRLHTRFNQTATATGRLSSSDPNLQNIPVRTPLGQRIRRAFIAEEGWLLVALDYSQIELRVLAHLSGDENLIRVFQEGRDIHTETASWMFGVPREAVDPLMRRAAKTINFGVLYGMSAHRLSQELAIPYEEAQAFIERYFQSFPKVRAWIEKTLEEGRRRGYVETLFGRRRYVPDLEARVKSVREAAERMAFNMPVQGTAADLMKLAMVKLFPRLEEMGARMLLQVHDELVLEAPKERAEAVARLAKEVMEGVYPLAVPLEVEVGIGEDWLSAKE

Cc1cn([C@H]2C[C@H](N=[N+]=[N-])[C@@H](CO)O2)c(=O)[nH]c1=O [AZT]
amplification of the cDNA after the PCR step (taq polymerase): NO amplification
amplification of cDNA after the PCR step (rHIV RT; AZT 250 μM to 1.25 mM added to the rHIV-RT reaction mixture in place of dT): no amplification of cDNA was observed
inhibition of activity (rHIV RT; [1]): 100%
observed CT (rHIV RT; [1]): greater than 40 cycles
